Patent US4929620A, “5-pyrimidinyl-3,5-dihydroxy-6-heptenoic acid compounds useful as inhibitors of cholesterol biosynthesis” (Warner-Lambert Company, priority 1989, dated 1990)

Tested on: sterol synthesis
Experiment: CSI screen: incorporation of 14C-acetate into nonsaponifiable lipid by rat liver homogenate (inhibition of cholesterol biosynthesis)
Format: biochemical
Settings: 50% inhibition of sterol synthesis over a one-hour period, livers of rats fed 5% cholestyramine chow for four days
Procedure: The ability of compounds of the present invention to inhibit the biosynthesis of cholesterol was measured by a method (designated CSI screen) which utilizes the procedure described by R. E. Dugan et al, Archiv. Biochem. Biophys., (1972), 152, 21-27. In this method, the level of HMG-CoA enzyme activity in standard laboratory rats is increased by feeding the rats a chow diet containing 5% cholestyramine for four days, after which the rats are sacrificed.
The rat livers are homogenized, and the incorporation of 14C-acetate into nonsaponifiable lipid by the rat liver homogenate is measured. The micromolar concentration of compound required for 50% inhibition of sterol synthesis over a one-hour period is measured, and expressed as an IC50 value.
The activities of several representative examples of compounds in accordance with the present invention appear in Table 1.

In order of rising IC50:
1. Cc1nc(C)c(/C=C/[C@@H]2C[C@@H](O)CC(=O)O2)c(-c2ccc(F)cc2)n1 (relative stereo) [[4α, 6β(E)]-6-[2-[4-(4-Fluorophenyl)-2,6-dimethyl-5-pyrimidinyl]ethenyl]tetrahydro-4-hydroxy-2H-pyran-2-one]  130 nM
2. Cc1nc(-c2ccccc2)nc(-c2ccc(F)cc2)c1/C=C/[C@@H]1C[C@@H](O)CC(=O)O1 (relative stereo) [[4α, 6β(E)]-6-[2-[4-(4-Fluorophenyl)-6-methyl-2-phenyl-5-pyrimidinyl]ethenyl]tetrahydro-4-hydroxy-2H-pyran-2-one]  150 nM
3. Cc1cc(C)cc(-c2nc(-c3ccccc3)nc(C)c2/C=C/[C@@H]2C[C@@H](O)CC(=O)O2)c1 (relative stereo) [[4α, 6β(E)]-6-[2-[4-(3,5-Dimethylphenyl)-6-methyl-2-phenyl-5-pyrimidinyl]ethenyl]-tetrahydro-4-hydroxy-2H-pyran-2-one]  220 nM
